Test results published in PubChem BioAssay AID248 (DTP/NCI, 2004).
“And” between values parts separate entries of the source, which are not always exact repeats. Identical values can stand only once. Inconclusive results and toxic doses are left out.

Tested on: L1210 leukemia ip in BDF1 mice, survival T/C
Assay: NCI In Vivo Anticancer Drug Screen. Data for tumor model L1210 Leukemia (intraperitoneal) in B6D2F1 (BDF1) mice
Details: endpoint: mean survival time, higher = longer survival
Summary of the method: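 Ratio derived from survival: compound-dosed mice over vehicle-dosed mice, all bearing a transplantable tumor.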

[1] = dose: 100.0 mg/kg/injection, schedule: Q01DX009 (ip), vehicle: saline with Tween-80
[2] = dose: 100.0 mg/kg/injection, schedule: Q04DX002 (ip), vehicle: Klucel (hydroxypropylcellulose) (HPC)
[3] = dose: 100.0 mg/kg/injection, schedule: Q04DX003 (ip), vehicle: saline
[4] = dose: 200.0 mg/kg/injection, schedule: Q04DX002 (ip), vehicle: Klucel (hydroxypropylcellulose) (HPC)
[5] = dose: 200.0 mg/kg/injection, schedule: Q04DX003 (ip), vehicle: saline
[6] = dose: 400.0 mg/kg/injection, schedule: Q04DX002 (ip), vehicle: Klucel (hydroxypropylcellulose) (HPC)
[7] = dose: 400.0 mg/kg/injection, schedule: Q04DX003 (ip), vehicle: saline
[8] = dose: 100.0 mg/kg/injection, schedule: Q01DX001 (ip), vehicle: saline
[9] = dose: 200.0 mg/kg/injection, schedule: Q01DX001 (ip), vehicle: saline
[10] = dose: 400.0 mg/kg/injection, schedule: Q01DX001 (ip), vehicle: saline
[11] = dose: 100.0 mg/kg/injection, schedule: Q04DX003 (ip), vehicle: saline with Tween-80
[12] = dose: 200.0 mg/kg/injection, schedule: Q04DX003 (ip), vehicle: saline with Tween-80

COCCOC1=C(N2CC2)C(=O)C(OCCOC)=C(N2CC2)C1=O
T/C (dose: 0.09 mg/kg/injection, schedule: Q01DX009 (ip), vehicle: saline): 96 % of control | T/C (dose: 0.17 mg/kg/injection, schedule: Q01DX009 (ip), vehicle: saline): 106 % of control | T/C (dose: 0.33 mg/kg/injection, schedule: Q01DX009 (ip), vehicle: saline): 153 % of control | T/C (dose: 0.66 mg/kg/injection, schedule: Q01DX009 (ip), vehicle: saline): 183 % of control | T/C (dose: 1.0 mg/kg/injection, schedule: Q01DX Z (ip), vehicle: saline): 117 % of control | T/C (dose: 1.25 mg/kg/injection, schedule: Q01DX001 (ip), vehicle: saline): 112 % of control | T/C (dose: 1.32 mg/kg/injection, schedule: Q01DX009 (ip), vehicle: saline): 150 % of control | T/C (dose: 2.0 mg/kg/injection, schedule: Q01DX Z (ip), vehicle: saline): 150 % of control | T/C (dose: 2.27 mg/kg/injection, schedule: Q01DX009 (ip), vehicle: saline): 153 % of control | T/C (dose: 3.0 mg/kg/injection, schedule: Q01DX001 (ip), vehicle: saline): 110 % of control | T/C (dose: 3.78 mg/kg/injection, schedule: Q01DX009 (ip), vehicle: saline): 195 % of control | T/C (dose: 4.0 mg/kg/injection, schedule: Q01DX Z (ip), vehicle: saline): 150 % of control | T/C (dose: 5.55 mg/kg/injection, schedule: Q01DX001 (ip), vehicle: saline): 106 % of control | T/C (dose: 6.0 mg/kg/injection, schedule: Q01DX001 (ip), vehicle: saline): 119 % of control | T/C (dose: 6.3 mg/kg/injection, schedule: Q01DX009 (ip), vehicle: saline): 185 % of control | T/C (dose: 8.0 mg/kg/injection, schedule: Q01DX Z (ip), vehicle: saline): 91 % of control | T/C (dose: 10.0 mg/kg/injection, schedule: Q01DX001 (ip), vehicle: saline): 150 % of control and 176 % of control

Clc1ccc(-c2cc[s+]s2)cc1
T/C (dose: 12.5 mg/kg/injection, schedule: Q01DX009 (ip), vehicle: water): 91 % of control | T/C (dose: 25.0 mg/kg/injection, schedule: Q04DX003 (ip), vehicle: water): 100 % of control | T/C (dose: 50.0 mg/kg/injection, schedule: Q01DX009 (ip), vehicle: water): 88 % of control | T/C (dose: 50.0 mg/kg/injection, schedule: Q04DX003 (ip), vehicle: water): 98 % of control | T/C (dose: 100.0 mg/kg/injection, schedule: Q04DX003 (ip), vehicle: water): 98 % of control and 92 % of control

O=[N+]([O-])CC(O)c1ccccc1Cl (configuration not stated)
T/C (dose: 50.0 mg/kg/injection, schedule: Q01DX009 (ip), vehicle: saline with Tween-80): 95 % of control | T/C [1]: 98 % of control

O=C(O)/C=C/c1ccncc1
T/C (dose: 100.0 mg/kg/injection, schedule: Q01DX001 (ip), vehicle: other): 103 % of control | T/C [2]: 93 % of control | T/C [3]: 103 % of control | T/C (dose: 200.0 mg/kg/injection, schedule: Q01DX001 (ip), vehicle: other): 105 % of control | T/C [4]: 86 % of control | T/C [5]: 92 % of control | T/C (dose: 400.0 mg/kg/injection, schedule: Q01DX001 (ip), vehicle: other): 97 % of control | T/C [6]: 93 % of control

CC[N+](=Cc1ccccc1)C1CCCCC1
T/C (dose: 100.0 mg/kg/injection, schedule: Q01DX009 (ip), vehicle: saline): 88 % of control | T/C [3]: 100 % of control | T/C (dose: 200.0 mg/kg/injection, schedule: Q01DX009 (ip), vehicle: saline): 93 % of control | T/C [5]: 97 % of control | T/C [7]: 108 % of control

Cc1cc(-c2ccc(NS(=O)(=O)c3ccccc3)c(C)c2)ccc1NS(=O)(=O)c1ccccc1
T/C (dose: 25.0 mg/kg/injection, schedule: Q01DX001 (ip), vehicle: saline with Tween-80): 95 % of control | T/C (dose: 50.0 mg/kg/injection, schedule: Q01DX001 (ip), vehicle: saline with Tween-80): 98 % of control | T/C (dose: 100.0 mg/kg/injection, schedule: Q01DX001 (ip), vehicle: saline with Tween-80): 92 % of control and 104 % of control | T/C (dose: 200.0 mg/kg/injection, schedule: Q01DX001 (ip), vehicle: saline with Tween-80): 89 % of control

Cc1cc2cc3n(c2nn1)N=C(Cl)CC3
T/C (dose: 80.0 mg/kg/injection, schedule: Q04DX002 (ip), vehicle: Klucel (hydroxypropylcellulose) (HPC)): 106 % of control | T/C (dose: 160.0 mg/kg/injection, schedule: Q04DX002 (ip), vehicle: Klucel (hydroxypropylcellulose) (HPC)): 118 % of control | T/C (dose: 320.0 mg/kg/injection, schedule: Q04DX002 (ip), vehicle: Klucel (hydroxypropylcellulose) (HPC)): 168 % of control

N#C/C(=C1/C(=O)c2ccccc2-c2c1cccc2[N+](=O)[O-])c1ccccc1
T/C (dose: 75.0 mg/kg/injection, schedule: Q01DX001 (ip), vehicle: carboxymethylcellulose (CMC)): 92 % of control | T/C (dose: 150.0 mg/kg/injection, schedule: Q01DX001 (ip), vehicle: carboxymethylcellulose (CMC)): 94 % of control | T/C (dose: 300.0 mg/kg/injection, schedule: Q01DX001 (ip), vehicle: carboxymethylcellulose (CMC)): 97 % of control

CCC(C)NC(C)=O (configuration not stated)
T/C [3]: 115 % of control | T/C [5]: 97 % of control | T/C [7]: 110 % of control

CC(=O)CCC(=O)NC(C)C
T/C (dose: 100.0 mg/kg/injection, schedule: Q04DX002 (ip), vehicle: saline with Tween-80): 102 % of control | T/C (dose: 200.0 mg/kg/injection, schedule: Q04DX002 (ip), vehicle: saline with Tween-80): 102 % of control | T/C (dose: 400.0 mg/kg/injection, schedule: Q04DX002 (ip), vehicle: saline with Tween-80): 117 % of control

CCC(CC)c1cccc2c(C(CC)CC)cccc12
T/C [8]: 98 % of control | T/C [9]: 96 % of control | T/C [10]: 96 % of control

COC(OC)c1[nH]c(=S)[nH]c(=O)c1Cc1ccc(C)c(C)c1
T/C [1]: 104 % of control | T/C [11]: 94 % of control | T/C (dose: 200.0 mg/kg/injection, schedule: Q01DX009 (ip), vehicle: saline with Tween-80): 96 % of control | T/C [12]: 96 % of control | T/C (dose: 400.0 mg/kg/injection, schedule: Q01DX009 (ip), vehicle: saline with Tween-80): 87 % of control | T/C (dose: 400.0 mg/kg/injection, schedule: Q04DX003 (ip), vehicle: saline with Tween-80): 100 % of control

COc1cc2c(c(OC)c1OC)-c1ccc(SC)c(=O)cc1C(N=Cc1ccccc1)CC2 (configuration not stated)
T/C [11]: 106 % of control | T/C [12]: 90 % of control

CCCCCCC(C)NCC(C)(C)OC(=O)c1ccc(N)cc1 (configuration not stated)
T/C (dose: 75.0 mg/kg/injection, schedule: Q01DX001 (ip), vehicle: other): 93 % of control | T/C (dose: 150.0 mg/kg/injection, schedule: Q01DX001 (ip), vehicle: other): 101 % of control | T/C (dose: 300.0 mg/kg/injection, schedule: Q01DX001 (ip), vehicle: other): 93 % of control

CC(=O)Nc1ccc(S(=O)(=O)NC2CCCCC2)cc1
T/C (dose: 50.0 mg/kg/injection, schedule: Q01DX001 (ip), vehicle: Klucel (hydroxypropylcellulose) (HPC)): 94 % of control | T/C (dose: 100.0 mg/kg/injection, schedule: Q01DX001 (ip), vehicle: Klucel (hydroxypropylcellulose) (HPC)): 97 % of control | T/C (dose: 200.0 mg/kg/injection, schedule: Q01DX001 (ip), vehicle: Klucel (hydroxypropylcellulose) (HPC)): 100 % of control

Oc1ccc2ccccc2c1C(c1ccccc1)N1CCOCC1 (configuration not stated)
T/C [2]: 88 % of control | T/C [4]: 88 % of control | T/C [6]: 101 % of control

CC(=O)OC1CCC(=O)C2C(C(=O)O)CCCC12 (configuration not stated)
T/C [8]: 97 % of control | T/C [9]: 103 % of control | T/C [10]: 91 % of control

CCOC(=O)c1ccc(=O)[nH]c1.[Ag]
T/C (dose: 6.25 mg/kg/injection, schedule: Q01DX009 (ip), vehicle: Klucel (hydroxypropylcellulose) (HPC)): 94 % of control | T/C (dose: 12.5 mg/kg/injection, schedule: Q01DX009 (ip), vehicle: Klucel (hydroxypropylcellulose) (HPC)): 90 % of control | T/C (dose: 25.0 mg/kg/injection, schedule: Q01DX009 (ip), vehicle: Klucel (hydroxypropylcellulose) (HPC)): 90 % of control | T/C (dose: 50.0 mg/kg/injection, schedule: Q01DX009 (ip), vehicle: Klucel (hydroxypropylcellulose) (HPC)): 86 % of control | T/C (dose: 100.0 mg/kg/injection, schedule: Q04DX003 (ip), vehicle: Klucel (hydroxypropylcellulose) (HPC)): 95 % of control | T/C (dose: 200.0 mg/kg/injection, schedule: Q04DX003 (ip), vehicle: Klucel (hydroxypropylcellulose) (HPC)): 92 % of control
